Key:
H. pylori SS1 [1] = assay: H. pylori killing kinetics at various pHs (CFU counting, 1 h); type: cell-based, Helicobacter pylori
Experimental: H. pylori killing kinetics at various pHs. The killing kinetics of polypeptides were measured against H. pylori by counting the colony forming units (CFU) of alive bacteria with agar plating. The polypeptides at various concentrations were dissolved in the Tris-HC buffer at various pHs (pH 7.4, 4.0, 3.0). H. pylori were then collected and dispersed in the BB medium supplied with fresh urea (10 mM) and 10% FBS at different pHs (pH 7.4, 4.0, 3.0). The optical density at 600 nm of the bacteria were fixed at 0.1. The bacteria were then incubated with the polypeptides solution at corresponding pH in the incubator supplied with 10% CO2 at 37° C. Samples were taken for a series of ten-fold dilutions, and plated out in BB agar plates with 10% FBS and vancomycin (pH 7.4) after 1 h incubation. The plates were incubated for 72 h in the incubator and the bacteria were counted for CFU. Bacteria incubated with Tris-HCl buffer only at corresponding pH were served as 100% survival. Survival rate (%)=CFU of bacteria treated with polypeptides/CFU of bacteria treated with buffer×100%. The killing kinetics of antibiotics (OAC, omeprazole, amoxicillin, clarithromycin) against H. pylori were determined with a similar procedure. The antibiotics at various concentrations were dissolved in the Tris-HCl buffer at pH 7.4, or 3.0, and were then incubated with H. pylori in BB medium supplied with fresh urea (10 mM) and 10% FBS at corresponding pH in the incubator. After 1 h incubation, the bacteria were collected by centrifuge at 10,000 rcf for 5 min and washed with fresh BB medium. Samples were then taken for a series of ten-fold dilutions, and plated out in BB agar plates with 10% FBS and vancomycin. The plates were incubated for 72 h in the incubator and the bacteria were counted for CFU.

H. pylori SS1 [2] = assay: MIC of antibiotics against SS1; type: cell-based; details: Helicobacter pylori
[3] = tested on: clinical isolated H. pylori stains J99, J99A-7, J99A-9, J99A-11, J99C-8, J99D-1; assay: Growth (OD600) of clinical isolated H. pylori strains with antibiotics; type: cell-based, Helicobacter pylori; details: pH 7.4, 10% CO2, 37° C.
Experimental: FIG. 8. (A) The survival rate of H. pylori after incubation with amoxicillin (273.7 μM) and clarithromycin (133.7 μM) under pH 7.4 or 3.0 for 1 h. […] Concentrations of omeprazole, amoxicillin, and clarithromycin in OAC1 are 20.0 μM, 6.8 μM, and 1.9 μM, respectively; in OAC2 are 40.0 μM, 13.6 μM, and 3.8 μM, respectively; in OAC3 are 80.0 μM, 27.2 μM, and 7.6 μM, respectively. (C) The antibacterial activity of omeprazole (O) and a combination of amoxicillin and clarithromycin (AC) against SS1 at pH 3.0. O1, O2, O3 represents the concentration of omeprazole at 20.0 μM, 40.0 μM, and 80.0 μM, respectively. AC1, AC2, AC3 represents the concentration of amoxicillin and clarithromycin at 6.8 μM and 1.9 μM, 13.6 μM and 3.8 μM, 27.2 μM and 7.6 μM, respectively. The antibiotics were incubated with H. pylori strains for 1 h. The antibacterial activity of amoxicillin (D) and clarithromycin (E) against clinical isolated H. pylori stains, J99, J99A-7, J99A-9, J99A-11, J99C-8, J99D-1. The bacteria were incubated with antibiotics under pH 7.4 in the 10% CO2 incubator (37° C.), and the optical density at 600 nm (OD600) of bacteria were analyzed to determine the growth of bacteria. […] (G) The antibacterial activity of omeprazole (0) and a combination of amoxicillin and clarithromycin (AC) against J99D-1 under pH 3.0.

H. pylori SS1 [4] = assay: Anti-H. pylori efficacy in vivo (infected C57BL/6J mice); design: species or system Helicobacter pylori; details: oral gavage once daily for 3 d, 2.6 μmol/kg
Experimental: Anti-H. pylori efficacy in vivo. […] For triple therapy, mice were first administered omeprazole (a proton pump inhibitor) through oral gavage at a dose of 400 μmol/kg, followed by a lag time of 30 min before administration of amoxicillin (68.0 μmol/kg) and clarithromycin (19.1 μmol/kg). PL2 and PDL2 in 5% (vol/vol) DMSO (both at 2.6 μmol/kg) were administered through oral gavage once daily for a consecutive 3 d. Water solution with 5% DMSO was served as negative control group. Forty-eight hours after the last administration, mice were killed and the stomach was removed from the abdominal cavity. The stomach was cut along the greater curvature, and the gastric content was removed and rinsed with PBS. The stomach sections were used for assessment of bacterial colonization. For bacterial colonization, a gastric tissue section was suspended in 1 mL PBS and homogenized for H. pylori recovery. The homogenate was serially diluted and spotted onto Columbia agar plate containing vancomycin (20 μg/mL), amphotericin (2 μg/mL), bacitracin (30 μg/mL) and nalidixic acid (10 μg/mL). The plates were then incubated at 37° C. under microaerobic conditions for 5 d, and bacterial colonies were enumerated and adjusted for dilutions.

[5] = Liposome dye leakage assay (ANTS/DPX efflux)
Experimental: Liposome dye leakage assay. ANTS (12.5 mM) and DPX (45 mM) were dissolved in Tris buffer (pH=7.4). To a clean round-bottom flask, appropriate volumes of lipid stocks were added to make up 1 mL of CHCl3 (3:1 POPE (1-palmitoyl-2-oleoyl-sn-glycero-3-phosphoethanolamine)/POPG (1-palmitoyl-2-oleoyl-sn-glycero-3-phospho-(1′-rac-glycerol) (sodium salt)) vesicles, POPE (130 μL, 25 mg/mL CHCl3) and POPG (115 μL, 10 mg/mL CHCl3) were used). The solvent was removed by a stream of nitrogen gas to obtain a thin lipid film, which was then hydrated by 1 mL of ANTS/DPX solution. The mixture was left to hydrate for 1 h, after which it was subjected to 10 freeze-thaw cycles (using dry ice/acetone to freeze and warm water to thaw). The suspension was extruded 20 times through a polycarbonate membrane with 400 nm pore diameter. The excess dye was removed using Sephadex G-50 column as the eluent. The dye-filled vesicle fractions were diluted 200 times with Tris buffer. This suspension (90 μL) was subsequently mixed with polypeptide stock solutions (10 μL) at various pH (pH 7.4 or 4.0) on a 96-well black microplate (Greiner, flat bottom). Tris buffer (10 μL, pH 7.4 or 4.0) and Triton-X (0.1% v/v, 10 μL, pH 7.4 or 4.0) were employed as the negative and positive controls at corresponding pH, respectively. After 30 min, the fluorescence intensity in each well was recorded using the microplate reader with excitation and emission wavelengths of 380 and 520 nm, respectively. The percentage of leaked […] dye in each well was determined as follows: leakage (%)=[(F−F0)/(FTX−F0)]×100%, where F is the fluorescence intensity recorded in the well, F0 is the intensity in the negative control well, and FTX is the intensity in the positive control well.

H. pylori SS1 [6] = assay: SEM analysis of bacterial morphology; type: cell-based, Helicobacter pylori; details: 30 min
Experimental: SEM analysis. SS1 bacterial cells grown in BB with the supplement of 10% FBS under pH 7.4 or 4.0 with or without polypeptides (2.2 μM) treatment were performed using a similar protocol as killing kinetics measurements but with a 30 min incubation time. All the samples were collected into a microfuge tube and pelleted at 4000 rpm for 5 min, and then washed twice with phosphate-buffered saline. Subsequently, bacteria were fixed with paraformaldehyde solution (4%) for 1 h before proceeding, followed by washing with DI water. Dehydration was performed with a series of graded ethanol solution (10%, 25%, 50%, 75%, 95%, and 100%). The dehydrated samples were dried under vacuum overnight before being mounted on carbon tape and coated with gold-platinum for imaging using a Hitachi S-4700 High Solution SEM (Japan).

[7] = Circular dichroism (CD) secondary structure of polypeptides at different pH; type: physicochemical; details: pH 7.4 or 3.0
Experimental: The secondary structure of the polypeptides at different pH value was then investigated by circular dichroism (CD). […] Distortion of helical conformation was noted when the pH was adjusted back to neutral (FIG. 1C).
The MALLS detector was calibrated using pure toluene and can be used for the determination of the absolute molecular weights (MWs). The MWs of polymers were determined based on the dn/dc value of each polymer sample calculated offline by using the internal calibration system processed by the ASTRA V software (version 5.1.7.3, Wyatt Technology, Santa Barbara, Calif., USA). Circular dichroism (CD) measurements were carried out on a JASCO J-815 CD spectrometer. The polymer samples were prepared at concentrations of 4.4 μM. The solution was placed in a quartz cell with a path length of 0.10 cm. The zeta-potential of polypeptides was evaluated by Malvern Zetasizer. Infrared spectra were recorded on a Perkin Elmer 100 serial FTIR spectrophotometer calibrated with polystyrene film. Lyophilization was performed on a FreeZonelyophilizer (Labconco, Kansas City, Mo., USA). UV light was generated from an OmiCure S1000 UV lamp (EXFO, Mississauga, Canada).

**Q.** For `CC1(C)S[C@@H]2[C@H](NC(=O)[C@H](N)c3ccc(O)cc3)C(=O)N2[C@H]1C(=O)O` [amoxicillin, reference compound], which “bactericidal activity against SS1” value (H. pylori SS1 [1]; pH 3.0, 1 h incubation) is on record?
**A.** Its value is “no bactericidal activity”.

**Q.** What about the bacteria killed (H. pylori SS1 [1]; pH 7.4, 1 h incubation, 273.7 μM) of the same compound?
**A.** The bacteria killed was roughly 40%.

**Q.** And the MIC (H. pylori SS1 [2])?
**A.** The MIC was 0.13 µM.

**Q.** Which “bactericidal activity against SS1” value (H. pylori SS1 [1]; pH 3.0, 1 h incubation) does the source give for `CC[C@H]1OC(=O)[C@H](C)[C@@H](O[C@H]2C[C@@](C)(OC)[C@@H](O)[C@H](C)O2)[C@H](C)[C@@H](O[C@@H]2O[C@H](C)C[C@H](N(C)C)[C@H]2O)[C@](C)(OC)C[C@@H](C)C(=O)[C@H](C)[C@@H](O)[C@]1(C)O` [clarithromycin, reference compound] here?
**A.** The value was “no bactericidal activity”.

**Q.** And the bacteria killed (H. pylori SS1 [1]; pH 7.4, 1 h incubation, 133.7 μM)?
**A.** Its bacteria killed is roughly 60%.

**Q.** And the “susceptibility of J99A-7, J99A-11, J99C-8 and J99D-1 (growth, OD600)” value [3]?
**A.** The value was “resistant”.

**Q.** And the MIC (H. pylori SS1 [2])?
**A.** Its MIC is 0.07 µM.

**Q.** With (PDLGA)20-r-(PHDLG-MHH)25 [PDL2] as the compound, how does the “bactericidal activity against SS1” value (H. pylori SS1 [1]; pH 3.0, 1 h incubation) read?
**A.** The value was “unappreciable bactericidal activity”.

**Q.** And the “bactericidal activity against SS1” value (H. pylori SS1 [1]; pH 7.4, 1 h incubation)?
**A.** The value was “unappreciable bactericidal activity”.

**Q.** And the “decrease of bacterial burden in the stomach as compared with the control group” value (H. pylori SS1 [4])?
**A.** Its value is “no significant decrease of bacterial burden”.

**Q.** And the “dye leakage from anionic liposomes” value ([5]; pH 4.0)?
**A.** Its value is “unappreciable dye leakage”.

**Q.** What about the “dye leakage from anionic liposomes” value ([5]; pH 7.4) of the same compound?
**A.** The value was “unappreciable dye leakage”.

**Q.** What about the “bacterial membrane/morphology by SEM” value (H. pylori SS1 [6]; pH 4.0, 2.2 μM) of the same compound?
**A.** Its value is “did not affect the morphology of bacteria”.

**Q.** And the “bacterial membrane/morphology by SEM” value (H. pylori SS1 [6]; pH 7.4, 2.2 μM)?
**A.** Its value is “did not affect the morphology of bacteria”.

**Q.** What about the “secondary structure (CD), dependence on pH” value [7] of the same compound?
**A.** Its value is “pH-independent non-helical conformation”.

**Q.** Which results are given for (PHLG-MHH)20 [PL1]?
**A.** bactericidal activity against SS1 (H. pylori SS1 [1]; pH 3.0, 1 h incubation): killed H. pylori SS1; bactericidal activity against SS1 (H. pylori SS1 [1]; pH 7.4, 1 h incubation): killed H. pylori SS1; dye leakage from anionic liposomes ([5]; pH 4.0): notable dye leakage; dye leakage from anionic liposomes ([5]; pH 7.4): notable dye leakage; bacterial membrane/morphology by SEM (H. pylori SS1 [6]; pH 4.0, 2.2 μM): membrane disruption; bacterial membrane/morphology by SEM (H. pylori SS1 [6]; pH 7.4, 2.2 μM): membrane disruption; secondary structure (CD), dependence on pH [7]: stable helical conformation independent of pH change

Reference: patent publication US11225507B2, “Conformation switchable antimicrobial peptides and methods of using the same” (priority 2017, dated 2022)
